Experimental data as given in ChEMBL document CHEMBL1201862, “PubChem BioAssay data set” (2004).
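Exposure lasted 48 hours, with cells grown in 96-well plates and compounds tested at five concentrations. The concentration for 50% growth inhibition is given as GI50.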 Calls of active or inactive are those of the source. No stated cut-off is given here; in the data, active = GI50 up to about 1.1 µM and inactive = higher.

What was measured:
Assay in all cases: DTP human tumour cell line panel, 48 h
[1] = system: HCT-116
[2] = system: SK-MEL-2
[3] = system: CAKI-1
[4] = system: U-251
[5] = system: A498
[6] = system: UACC-257
[7] = system: NCI-H226
[8] = system: 786-0
[9] = system: NCI-H522
[10] = system: KM12
[11] = system: SW-620
[12] = system: SF-539
[13] = system: SK-MEL-28
[14] = system: MOLT-4
[15] = system: HCT-15
[16] = system: HOP-62
[17] = system: RPMI-8226
[18] = system: DU-145
[19] = system: NCI/ADR-RES
[20] = system: T47D

Compound	GI50 [1]	GI50 [2]	GI50 [3]	GI50 [4]	GI50 [5]	GI50 [6]	GI50 [7]	GI50 [8]	GI50 [9]	GI50 [10]	GI50 [11]	GI50 [12]	GI50 [13]	GI50 [14]	GI50 [15] [µM]	GI50 [16]	GI50 [17]	GI50 [18]	GI50 [19]	GI50 [20]
N#CCCN(CCC#N)c1ccc(/C=C2\N=C(c3cc([N+](=O)[O-])ccc3Cl)OC2=O)cc1	> 100 µM (inactive)	20 µM (inactive)	> 100 µM (inactive)	17.6 µM (inactive)	> 100 µM (inactive)	20 µM (inactive)	22.4 µM (inactive)	34.4 µM (inactive)	14 µM (inactive)	14.7 µM (inactive)	68.4 µM (inactive)	40.3 µM (inactive)	52.6 µM (inactive)	24.2 µM (inactive)	53.2	35.4 µM (inactive)	88.7 µM (inactive)	–	–	–
COc1cc([C@@H]2c3cc4c(cc3[C@@H](NC(=O)c3cccc(C#N)c3)C3COC(=O)[C@@H]32)OCO4)cc(OC)c1O (stereo not given in full)	1.1 µM (active)	3.55 µM (inactive)	0.678 µM (active)	0.155 µM (active)	1.26 µM (inactive)	6.17 µM (inactive)	0.0671 µM (active)	0.703 µM (active)	0.908 µM (active)	1.39 µM (inactive)	0.583 µM (active)	0.141 µM (active)	2.92 µM (inactive)	15.1 µM (inactive)	3.81	0.172 µM (active)	7.14 µM (inactive)	–	–	–
CCOC(=O)CC(=O)NC1CC2CCC1(C)C2(C)C (stereo not given)	> 100 µM (inactive)	–	> 100 µM (inactive)	> 100 µM (inactive)	> 100 µM (inactive)	> 100 µM (inactive)	> 100 µM (inactive)	> 100 µM (inactive)	–	> 100 µM (inactive)	> 100 µM (inactive)	> 100 µM (inactive)	> 100 µM (inactive)	> 100 µM (inactive)	> 100	> 100 µM (inactive)	> 100 µM (inactive)	> 100 µM (inactive)	> 100 µM (inactive)	–
CC[n+]1[b-](C(C)(C)C)n(/N=C(\C)C(C)(C)C)[b-](C(C)(C)C)[n+]1CC	> 100 µM (inactive)	> 100 µM (inactive)	> 100 µM (inactive)	> 100 µM (inactive)	–	> 100 µM (inactive)	72.9 µM (inactive)	> 100 µM (inactive)	> 100 µM (inactive)	> 100 µM (inactive)	> 100 µM (inactive)	> 100 µM (inactive)	> 100 µM (inactive)	> 100 µM (inactive)	> 100	> 100 µM (inactive)	–	–	87.1 µM (inactive)	> 100 µM (inactive)
COC(C)(C)C1=CCC(C)CC1 (stereo not given)	> 100 µM (inactive)	–	> 100 µM (inactive)	> 100 µM (inactive)	> 100 µM (inactive)	> 100 µM (inactive)	–	> 100 µM (inactive)	> 100 µM (inactive)	> 100 µM (inactive)	> 100 µM (inactive)	> 100 µM (inactive)	> 100 µM (inactive)	30 µM (inactive)	> 100	> 100 µM (inactive)	> 100 µM (inactive)	> 100 µM (inactive)	–	–
O=C1CN(c2ccc(Cl)cc2)C(=O)CN1NCNN1CC(=O)N(c2ccc(Cl)cc2)CC1=O	> 100 µM (inactive)	–	> 100 µM (inactive)	> 100 µM (inactive)	> 100 µM (inactive)	> 100 µM (inactive)	–	> 100 µM (inactive)	> 100 µM (inactive)	> 100 µM (inactive)	> 100 µM (inactive)	> 100 µM (inactive)	> 100 µM (inactive)	> 100 µM (inactive)	> 100	> 100 µM (inactive)	> 100 µM (inactive)	> 100 µM (inactive)	–	–
CC(C)N(C(=O)C12CC3CC(CC(C3)C1)C2)C(C)C	> 50 µM (inactive)	> 50 µM (inactive)	> 50 µM (inactive)	> 50 µM (inactive)	> 50 µM (inactive)	> 50 µM (inactive)	> 50 µM (inactive)	> 50 µM (inactive)	> 50 µM (inactive)	> 50 µM (inactive)	> 50 µM (inactive)	> 50 µM (inactive)	> 50 µM (inactive)	> 50 µM (inactive)	> 50	> 50 µM (inactive)	> 50 µM (inactive)	–	–	–
COc1ccc(OC)c(CNc2ccc(C(=O)O)cc2)c1	> 100 µM (inactive)	> 100 µM (inactive)	> 100 µM (inactive)	> 100 µM (inactive)	> 100 µM (inactive)	> 100 µM (inactive)	> 100 µM (inactive)	> 100 µM (inactive)	> 100 µM (inactive)	> 100 µM (inactive)	> 100 µM (inactive)	> 100 µM (inactive)	> 100 µM (inactive)	> 100 µM (inactive)	> 100	–	> 100 µM (inactive)	> 100 µM (inactive)	> 100 µM (inactive)	–
Cc1ccc(CC(C)N)cc1 (stereo not given)	> 100 µM (inactive)	> 100 µM (inactive)	> 100 µM (inactive)	> 100 µM (inactive)	> 100 µM (inactive)	> 100 µM (inactive)	> 100 µM (inactive)	> 100 µM (inactive)	> 100 µM (inactive)	> 100 µM (inactive)	> 100 µM (inactive)	> 100 µM (inactive)	> 100 µM (inactive)	> 100 µM (inactive)	> 100	> 100 µM (inactive)	> 100 µM (inactive)	–	–	–
CC(C)(c1ccc(Oc2ccc(C#N)c(C#N)c2)cc1)c1ccc(Oc2ccc(C#N)c(C#N)c2)cc1	> 10 µM (inactive)	> 10 µM (inactive)	> 10 µM (inactive)	> 10 µM (inactive)	> 10 µM (inactive)	> 10 µM (inactive)	> 10 µM (inactive)	> 10 µM (inactive)	> 10 µM (inactive)	> 10 µM (inactive)	> 100 µM (inactive)	> 10 µM (inactive)	> 10 µM (inactive)	> 10 µM (inactive)	> 10	> 10 µM (inactive)	> 10 µM (inactive)	–	–	–
C=CC/N=C1\N=C(C)C(C(=O)OCC)S1 (stereo not given)	> 100 µM (inactive)	> 100 µM (inactive)	> 100 µM (inactive)	> 100 µM (inactive)	> 100 µM (inactive)	> 100 µM (inactive)	> 100 µM (inactive)	> 100 µM (inactive)	> 100 µM (inactive)	> 100 µM (inactive)	> 100 µM (inactive)	> 100 µM (inactive)	> 100 µM (inactive)	> 100 µM (inactive)	> 100	> 100 µM (inactive)	> 100 µM (inactive)	–	–	–
C[Si]1(C)C(c2ccccc2)=CC2C(c3ccccc3)(c3ccccc3)OC21c1ccccc1 (stereo not given)	28.2 µM (inactive)	> 100 µM (inactive)	> 100 µM (inactive)	> 100 µM (inactive)	> 100 µM (inactive)	> 100 µM (inactive)	> 100 µM (inactive)	> 100 µM (inactive)	> 100 µM (inactive)	> 100 µM (inactive)	> 100 µM (inactive)	> 100 µM (inactive)	> 100 µM (inactive)	58.1 µM (inactive)	> 100	> 100 µM (inactive)	30.1 µM (inactive)	–	–	–
CC/C(CC(=O)CCC(=O)Nc1ccccc1[N+](=O)[O-])=N/NC(=O)C[n+]1ccccc1	> 100 µM (inactive)	> 100 µM (inactive)	> 100 µM (inactive)	> 100 µM (inactive)	> 100 µM (inactive)	> 100 µM (inactive)	> 100 µM (inactive)	> 100 µM (inactive)	> 100 µM (inactive)	> 100 µM (inactive)	> 100 µM (inactive)	> 100 µM (inactive)	> 100 µM (inactive)	> 100 µM (inactive)	> 100	> 100 µM (inactive)	> 100 µM (inactive)	–	–	–
CC1CC/C(=C\c2ccc(Cl)cc2)c2nc(N)c(C#N)c(-c3ccc(Cl)cc3)c21 (stereo not given)	84.9 µM (inactive)	66.1 µM (inactive)	21.8 µM (inactive)	17.7 µM (inactive)	26.3 µM (inactive)	32.9 µM (inactive)	58.6 µM (inactive)	> 100 µM (inactive)	30.3 µM (inactive)	40.2 µM (inactive)	55.3 µM (inactive)	48.8 µM (inactive)	49.4 µM (inactive)	14.1 µM (inactive)	8.47	70.6 µM (inactive)	19.7 µM (inactive)	–	55.1 µM (inactive)	55.3 µM (inactive)
COC12C=CC(CC1)c1c(O)ccc(O)c12 (stereo not given)	40.7 µM (inactive)	42.9 µM (inactive)	> 80.9 µM (inactive)	38.9 µM (inactive)	> 100 µM (inactive)	> 84.9 µM (inactive)	39.1 µM (inactive)	> 64.9 µM (inactive)	16.8 µM (inactive)	> 95.1 µM (inactive)	27.5 µM (inactive)	> 100 µM (inactive)	87.5 µM (inactive)	22.8 µM (inactive)	29.7	> 100 µM (inactive)	50.8 µM (inactive)	–	–	–
COc1ccc2nc3ccccc3c(NCCCCCCN(CCCl)CCCl)c2c1	0.0299 µM (active)	0.297 µM (active)	0.0353 µM (active)	0.0528 µM (active)	0.405 µM (active)	1.6 µM (inactive)	0.25 µM (active)	0.0161 µM (active)	0.0338 µM (active)	0.151 µM (active)	0.0199 µM (active)	0.215 µM (active)	1.06 µM (active)	0.0124 µM (active)	0.0577	0.212 µM (active)	0.0122 µM (active)	0.0817 µM (active)	0.0883 µM (active)	–
